Data from patent US10508077B2 (FORMA Therapeutics, Inc., priority 2015, dated 2019).

Experiments:
[1] = target: T1, Recombinant N-terminal GST tag full-length human HDAC8 (Homo sapiens, UniProt Q9BY41); experiment: HDAC8 probe binding assay, time resolved fluorescence (TRF); details: fluorescein labeled pan-HDAC inhibitor probe, 16 hours incubation, compounds listed under IC50 range headings
T1 construct: Recombinant N-terminal GST tag full-length human HDAC8; purchased SignalChem H90-30G-1000; host or cells: Sf9 insect cells (baculovirus)
T1 sequence (Q9BY41 1-377): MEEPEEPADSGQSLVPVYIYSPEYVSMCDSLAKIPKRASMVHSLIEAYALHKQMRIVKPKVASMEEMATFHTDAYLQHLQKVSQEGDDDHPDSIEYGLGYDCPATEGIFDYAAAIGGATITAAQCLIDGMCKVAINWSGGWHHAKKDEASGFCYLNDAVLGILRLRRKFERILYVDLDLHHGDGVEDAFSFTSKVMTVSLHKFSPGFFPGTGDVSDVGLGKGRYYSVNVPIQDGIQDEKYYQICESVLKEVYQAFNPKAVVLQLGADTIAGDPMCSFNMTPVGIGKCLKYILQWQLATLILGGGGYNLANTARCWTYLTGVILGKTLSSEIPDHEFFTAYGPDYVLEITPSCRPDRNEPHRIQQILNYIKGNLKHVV
Method: The HDAC8 probe binding assay was performed using a time resolved fluorescence (TRF) assay format. Recombinant N-terminal GST tag full-length human HDAC8 was expressed and purified from baculovirus in Sf9 insect cells (SignalChem, #H90-30G-1000), Each assay was performed in 1536 black well microplates (Corning, #3936) in a final volume of 4 μL in assay buffer containing 50 mM HEPES (pH 7.5), 50 mM KCl, 50 mM NaCl, 0.5 mM GSH (L-Glutathione reduced, Sigma #G4251), 0.03% BGG (0.22 μM filtered, Sigma, #G7516-25G), and 0.01% Triton X-100 (Sigma, #T9284-10L). 20 nL of 10-point, 3-fold serial dilution in DMSO was pre-dispensed into respective wells of 1536 assay plates for a final test concentration range of 25 μM to 1.3 nM respectively. The final concentration in the assay of HDAC8 and probe (a fluorescein labeled pan-HDAC inhibitor) was 2.5 nM and 1.5 nM respectively. 2 μL of 2× probe and 2× anti-GST Terbium (Cisbio, #61GSTXLB) was added to assay plates followed by 2 μL of 2× HDAC8. Plates were incubated for 16 hours at room temperature before time resolved fluorescence was read on the Envision (Excitation at 340 nm, and Emission at 485 nm and 535 nm, Perkin Elmer).
Data from HDAC8 Assays were reported as percent inhibition (inh) compared with control wells based on the following equation: % inh=1−((FLU−AveLow)/(AveHigh−AveLow)) where FLU=measured time resolved fluorescence. AveLow=average time resolved fluorescence of no enzyme control (n=32). AveHigh=average time resolved fluorescence of DMSO control (n=32). IC50 values were determined by curve fitting of the standard 4 parameter logistic fitting algorithm included in the Activity Base software package: IDBS XE Designer Model205. Data is fitted using the Levenburg Marquardt algorithm.

[2] = target: T2, Full length human recombinant HDAC8 protein (Homo sapiens, UniProt Q9BY41); experiment: In vitro histone deacetylase assay: enzymatic HDAC8 assay, electrophoretic mobility shift; format: biochemical; details: substrate RHKK(Ac)-NH2, 1 nM enzyme, compounds listed under IC50 range headings
T2 construct: Full length human recombinant HDAC8 protein was expressed in baculoviral system; made in house
T2 sequence (Q9BY41 1-377): T1 sequence (Q9BY41 1-377)
Procedure, shortened: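 Baculovirus-expressed full-length human HDAC8 (1 nM) deacetylated 2 µM fluorescent RHKK(Ac)-NH2 peptide in pH 7.5 HEPES, 1% DMSO, at 25 °C, with 12 compound concentrations at 3× spacing. SDS-quenched; product and substrate resolved by microfluidic electrophoresis, P/(S+P) converted to percent inhibition, and IC50 obtained by 4-parameter fit.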

Row | Compound | IC50 [1] [nM] | IC50 [2] [nM]
1 | O=C(/C=C/c1ccccc1N1CCN(c2ccc(OC(F)(F)F)cc2)CC1=O)NO [Example I-503, (E)-N-hydroxy-3-(2-(2-oxo-4-(4-(trifluoromethoxy)phenyl)piperazin-1-yl)phenyl)acrylamide] | ≤ 1000 | –
2 | O=C(/C=C/c1ccccc1N1CCN(c2ccc(Cl)c(C(F)(F)F)c2)CC1=O)NO [Example I-582, (E)-3-(2-(4-(4-chloro-3-(trifluoromethyl)phenyl)-2-oxopiperazin-1-yl)phenyl)-N-hydroxyacrylamide] | 1000 to 100000 | –
3 | CC(C)(C)C(=O)N1CC2(CCCN2c2ccccc2/C=C/C(=O)NO)C1 [Example I-569] | ≤ 1000 | –
4 | COc1ccc(F)cc1Oc1ccccc1C(=O)Nc1ccccc1/C=C/C(=O)NO [Example I-551, 2-(5-fluoro-2-methoxyphenoxy)-N-{2-[(1E)-2-(hydroxycarbamoyl)eth-1-en-1-yl]phenyl}benzamide] | ≤ 1000 | –
5 | O=C(/C=C/c1cc(Cl)ccc1NC(=O)c1cccnc1Oc1ccccc1)NO [Example I-570, N-{4-chloro-2-[(1E)-2-(hydroxycarbamoyl)eth-1-en-1-yl]phenyl}-2-phenoxypyridine-3-carboxamide] | ≤ 1000 | –
6 | O=C(/C=C/c1ccccc1N1CCC2(CCCN2C(=O)CC(F)(F)F)C1)NO (centres unmarked) [Example I-576, (E)-N-hydroxy-3-(2-(1-(3,3,3-trifluoropropanoyl)-1,7-diazaspiro[4.4]nonan-7-yl)phenyl)acrylamide] | ≤ 1000 | –
7 | O=C(/C=C/c1ccccc1N1CCN(Cc2ccccc2)CC1=O)NO [Example I-495, (E)-3-(2-(4-benzyl-2-oxopiperazin-1-yl)phenyl)-N-hydroxyacrylamide] | ≤ 1000 | –
8 | COc1ccc(Oc2ccccc2C(=O)Nc2ccccc2/C=C/C(=O)NO)cc1 [Example I-559] | ≤ 1000 | –
9 | O=C(/C=C/c1ccccc1N1CCCC12CN(C(=O)c1ccc(F)cc1)C2)NO [Example I-554, (E)-3-(2-(2-(4-fluorobenzoyl)-2,5-diazaspiro[3.4]octan-5-yl)phenyl)-N-hydroxyacrylamide] | 1000 to 100000 | –
10 | O=C(/C=C/c1ccccc1N1CCCC12CN(C(=O)C1CCCCC1)C2)NO [Example I-567, (E)-3-(2-(2-(cyclohexanecarbonyl)-2,5-diazaspiro[3.4]octan-5-yl)phenyl)-N-hydroxyacrylamide] | 1000 to 100000 | –
11 | Cn1cc(Oc2ccccc2C(=O)Nc2ccc(F)cc2/C=C/C(=O)NO)cn1 [Example I-558, N-{4-fluoro-2-[(1E)-2-(hydroxycarbamoyl)eth-1-en-1-yl]phenyl}-2-[(1-methyl-1H-pyrazol-4-yl)oxy]benzamide] | ≤ 1000 | –
12 | O=C(/C=C/c1ccccc1N1CCN(c2ccc(F)cc2)C1=O)NO [Example I-501, (E)-3-(2-(3-(4-fluorophenyl)-2-oxoimidazolidin-1-yl)phenyl)-N-hydroxyacrylamide] | ≤ 1000 | –
13 | Cc1ccc(Oc2ccccc2C(=O)Nc2ccc(Cl)cc2/C=C/C(=O)NO)cn1 [Example I-560, N-{4-chloro-2-[(1E)-2-(hydroxycarbamoyl)eth-1-en-1-yl]phenyl}-2-[(6-methylpyridin-3-yl)oxy]benzamide] | ≤ 1000 | –
14 | O=C(/C=C/c1c(Cl)cccc1NC(=O)c1ccccc1Oc1ccc(F)cc1)NO [Example I-563, N-{3-chloro-2-[(1E)-2-(hydroxycarbamoyl)eth-1-en-1-yl]phenyl}-2-(4-fluorophenoxy)benazmide] | ≤ 1000 | –
15 | O=C(/C=C/c1ccccc1NC(=O)C(c1ccccc1)C1CCCC1)NO (centres unmarked) [Example I-279, (E)-3-(2-(2-cyclopentyl-2-phenylacetamido)phenyl)-N-hydroxyacrylamide] | – | < 1000
16 | CCSCC(=O)NC1CCN(c2ccccc2/C=C/C(=O)NO)CC1 [Example I-131] | – | < 1000

Row | Compound | IC50 [1] [nM] | IC50 [2] [nM]
17 | O=C(/C=C/c1ccccc1N1CCN(S(=O)(=O)c2ccc3c(c2)OCCO3)CC1)NO [Example I-28, (E)-3-(2-(4-((2,3-dihydrobenzo[b][1,4]di-oxin-6-yl)sulfonyl)piperazin-1-yl)phenyl)-N-hydroxyacrylamide] | – | 1000 to 10000
18 | COc1ccc(CNC(=O)c2ccccc2/C=C/C(=O)NO)cc1 [II-5, (E)-2-(3-(hydroxyamino)-3-oxoprop-1-en-1-yl)-N-(4-methoxybenzyl)benzamide] | – | 1000 to 10000
19 | O=C(/C=C/c1ccccc1N1CCC(NC(=O)CSc2ccccc2)CC1)NO [Example I-152, (E)-N-hydroxy-3-(2-(4-(2-(phenylthio)acetamido)piperidin-1-yl)phenyl)acrylamide] | – | < 1000
20 | CC(C)(C)OC(=O)N1CCC2(CCC(C(=O)Nc3ccccc3/C=C/C(=O)NO)CC2)CC1 [Example I-47, tert-butyl-(E)-9-((2-(3-(hydroxyamino)-3-oxoprop-1-en-1-yl)phenyl)carbamoyl)-3-azaspiro[5.4]undecane-3-carboxylate] | – | < 1000
21 | Cc1cc(C(=O)Nc2ccccc2/C=C/C(=O)NO)ccc1-n1cnnn1 [Example I-286, (E)-N-(2-(3-(hydroxyamino)-3-oxoprop-1-en-1-yl)phenyl)-3-methyl-4-(1H-tetrazol-1-yl)benzamide] | – | < 1000
22 | O=C(/C=C/c1ccccc1N1CCN(Cc2nc3ccccc3s2)CC1)NO [Example I-189, (E)-3-(2-(4-(benzo[d]thiazol-2-ylmethyl)piperazin-1-yl)phenyl)-N-hydroxyacrylamide] | – | < 1000
23 | O=C(/C=C/c1ccccc1N1CCC(NCc2ccccc2OC(F)F)CC1)NO [Example I-191, (E)-3-(2-(4-((2-(difluoromethoxy)benzyl)amino)piperidin-1-yl)phenyl)-N-hydroxyacrylamide] | – | < 1000
24 | O=C(/C=C/c1ccccc1N1CCN(C(=O)c2ccc(F)cn2)CC1)NO [Example I-202, (E)-3-(2-(4-(5-fluoropicolinoyl)piperazin-1-yl)phenyl)-N-hydroxyacrylamide] | – | < 1000
25 | O=C(/C=C/c1ccccc1N1CCN(Cc2ccccc2C(F)(F)F)CC1)NO [Example I-174, (E)-N-hydroxy-3-(2-(4-(2-(trifluoromethyl)benzyl)piperazin-1-yl)phenyl)acrylamide] | – | < 1000
26 | O=C(/C=C/c1ccccc1N1CCC(NS(=O)(=O)Cc2cccc(F)c2)CC1)NO [Example I-235, (E)-3-(2-(4-(((3-fluorophenyl)methyl)sul-fonamido)piperidin-1-yl)phenyl)-N-hydroxyacrylamide] | – | < 1000
27 | COc1cncc(CN2CCN(c3ccccc3/C=C/C(=O)NO)CC2)c1 [Example I-169, (E)-N-hydroxy-3-(2-(4-((5-methoxypyridin-3-yl)methyl)piperazin-1-yl)phenyl)acrylamide] | – | < 1000
28 | O=C(/C=C/c1ccccc1N1CCN(C(=O)Nc2ccc(OC(F)(F)F)cc2)CC1=O)NO [Example I-528, (E)-4-(2-(3-(hydroxyamino)-3-oxoprop-1-en-1-yl)phenyl)-3-oxo-N-(4-(trifluoromethoxy)phenyl)piperazine-1-carboxamide] | – | < 1000
29 | O=C(/C=C/c1ccccc1N1CCC(NC(=O)CCN2CCCC2=O)CC1)NO [Example I-137, (E)-N-hydroxy-3-(2-(4-(3-(2-oxopyrrolidin-1-yl)propanamido)piperidin-1-yl)phenyl)acrylamide] | – | < 1000
30 | CC(C)Nc1ncc(CNc2ccccc2/C=C/C(=O)NO)cn1 [Example I-105, (E)-N-hydroxy-3-(2-(((2-(isopropylamino)pyrimidin-5-yl)methyl)amino)phenyl)acrylamide] | – | < 1000
31 | O=C(/C=C/c1ccccc1N1CCN(C(=O)C2Cc3ccccc3C2)CC1)NO [Example I-20, (E)-3-(2-(4-(2,3-dihydro-1H-indene-2-carbonyl)-piperazin-1-yl)phenyl)-N-hydroxyacrylamide] | – | 1000 to 10000
32 | CCc1ccc(NC(=O)c2ccccc2/C=C/C(=O)NO)cc1 [II-3, (E)-N-(4-ethylphenyl)-2-(3-(hydroxyamino)-3-oxoprop-1-en-1-yl)benzamide] | – | 1000 to 10000
